Results as given in US10285938B2 (ISSAR Pharmaceutical, priority 2015, dated 2019).
Like-named read-outs stand apart in the source and are kept apart here. No end group written: not given here.

Assays:
[1] = tested on: Staphylococcus aureus MTCC 96; type: cell-based
[2] = tested on: Pseudomonas aeroginosa MTCC 741; type: cell-based
Source text: Whereas, 100% killing of Pseudomonas aeroginosa was observed on exposure to the test compound for 1 hr at pH 8.4 and an exposure of 4 hrs was required for 100% killing at pH 7.2.

[3] = subacute toxicity study in rats; type: in vivo
[4] = subacute toxicity study in rabbits; type: in vivo
[5] = human, in vivo
Source text: There was an absence of any symptoms or signs of toxicity at the evaluation site and considered a measure of primary efficacy/tolerability was established in this study. […] Treatment Groups (2% and 4%) were similar in efficacy/tolerability and safety parameters studied.

burn wound healing = tested on: burn wound healing; parameters: species or system human; conditions: in vivo
Source text: None of the XYLENTRA® treated volunteers developed any adverse reaction.

Source text for partial thickness burns: Patients of either gender with partial thickness burns referred to a tertiary referral center Number of Subjects Enrolled: 160
Multi-center, double-blind, randomized parallel design study in 200 patients of partial thickness burns • 2. […] Participants satisfying the inclusion criteria were hospitalized for the study duration and were randomized in a 1:1 ratio to receive either SSD 1% or XYLENTRA®. Randomization was done specific for each center. Allocation concealment was maintained. The drugs were topically administered once daily for 4 weeks or until complete wound healing, whichever was earlier. The patients were discharged only after complete healing of wound and recovery from other secondary effects of burns. A follow up was done on the 3rd month to record the frequency of scars^10, keloids or contracture formation. • b. […] Either sex • 2. Age 18-60 years • 3. Those diagnosed with partial thickness thermal burns as per clinically • 4. Total surface area of the burn 10-20% as per Wallace rule of nine • 5. Willing to give written informed consent. • 6. Females of child-bearing potential with a negative urine pregnancy test on Day 1 • 7. […]
Safety was measured by pretreatment and post treatment biochemical investigations (Hematological variables) and physical examination. Subjects were thoroughly monitored for adverse effects.

In the case of FAKKFAKKFAKFAKKFAKFAFAF [XYLENTRA®], the “killing of Staphylococcus aureus” value ([1]; MTCC 96, 1 h, 1 μM, pH 7.2) was 100%, the “killing of Staphylococcus aureus” value ([1]; MTCC 96, 1 h, 5 μM, pH 7.2) was 100% and the “killing of Staphylococcus aureus” value ([1]; MTCC 96, 4 h, pH 8.4) was 100%. The “killing of Pseudomonas aeroginosa” value ([2]; MTCC 741, 1 h, pH 8.4) was 100%, the “killing of Pseudomonas aeroginosa” value ([2]; MTCC 741, 4 h, pH 7.2) was 100% and the mortality [3] was “No mortality”. For the same sequence, the “abnormalities in physical, physiological, biochemical and histo-pathological parameters” value ([3]; application of the peptide) was “No abnormalities”, the mortality [4] was “No mortality” and the “abnormalities in physical, physiological, biochemical and histo-pathological parameters” value ([4]; application of the peptide) was “No abnormalities”. The “mild redness and itching” value [5] was 2/24, the safety of cream [5] was “safe” and the “systemic absorption (pharmacokinetic data by HPLC)” value [5] was “no systemic absorption”. For the same sequence, the “systemic absorption (pharmacokinetic data)” value (burn wound healing) was “absence of systemic absorption”, the “volunteers who developed any adverse reaction” value (burn wound healing) was “None” and the “serious adverse events and deaths” value (partial thickness burns; Phase III) was “No serious adverse events and no deaths”. The “nature of treatment emergent adverse events” value (partial thickness burns; mostly skin related disorders) was “mild”.
